The text below walks through data of US5681708A, “Method for screening compositions” (SmithKline Beecham Corporation, priority 1994, dated 1997).

The target in the assay is T1, CD4/Lck protein complex (Homo sapiens, UniProt P01730+P06239).
T1 construct: Detergent extracts of CEM cells were prepared by pelleting cells; endogenous in cells; host or cells: CEM (ATCC CCL 119), acute lymphoblastic CD4-positive human T-cell line; diluted detergent (NP-40) extract
The experiment in a line: CD4/Lck Dissociation Assay (ELISA-based, CEM cell extracts). The assay is classed as biochemical. The settings on record: CEM cell detergent extract, 30 min at 30° C., OKT4 capture, C-Lck detection; read-out: IC50, concentration of test compound which dissociated 50% of the target CD4/Lck protein complex relative to controls. On the procedure: Acute lymphoblastic CD4-positive human T-cells, from the T-cell line CEM (ATCC CCL 119), were grown in suspension in RPMI-1640 medium supplemented with 10% heat-inactivated fetal calf serum at 37° C. to a cell density of 0.8-1.2×10^6 cells/mi. Detergent extracts of CEM cells were prepared by pelleting cells, washing with Dulbecco's phosphate buffered saline without Ca and Mg (D-PBS) at 4° C. and resuspending the cell pellet in sufficient freshly prepared extraction buffer (50 mM Tris, pH 8.0, 150 mM NaCl, 2 mM EDTA, 50 mM NaF, 3% NONIDET™ P-40, 0.1 mMNa vanadate, 0.1 mM PMSF, 10 ug/ml leupeptin, 10 ug/ml aprotinin, 10 ug/ml TLCK) to yield 1.0×10^8 cells in a volume of 1 ml. The cell pellet was resuspended gently on ice until a homogeneous suspension was obtained and kept on ice for at least 30 min with occasional vortexing. The suspension was then centrifuged at 29,000 xg for 30 min at 4° C.; the clear cell extract supernatant was transferred to a clean tube and placed on ice.
Cell extracts were diluted 16-fold with ice-cold PBS (0.1M phosphate, 0.15M NaCl, ph 7.4) containing 0.5% (w/v) BSA and 0.05% (v/v) TWEEN™ 20 (PBT) to yield 6.25×10^6 cell equivalents/mi. Candidate dissociative agents were diluted to 1 mg/ml with ddH2 O and 10 ul were added to Corning plate wells. A 90 ul volume of diluted cell extract (5.6×10^5 cell equivalents) were added to the Corning plate wells containing an organic solvent to provide a final candidate agent concentration of 0.1 mg/ml. Exemplary organic solvents are DMSO and ethanol. The resulting final concentration of organic solvent was 1%. The plates were incubated for 30 min at 30° C. in a water bath and then transferred to ice. Alternatively, diluted cell extracts can be incubated with candidate agents for 2 to 3 hours at room temperature (22°-25° C.).
ELISA assay plate wells were prepared by coating MaxiSorp™ (Nunc, round-bottom wells) or TITERTEK™ plate wells overnight at 4° C. with 100 ul of 2.5 ug/ml OKT4 CD4 mAb in 0.1M NaHCO3, pH 9.2. TITERTEK™ and Corning ELISA plates were also successfully used. Other CD4 monoclonal antibodies which bind to portions of the V1 domain in the extracellular portion of the CD4 molecule may also be used. All CD4 monoclonal antibodies were either purchased from Ortho or purified from specific hybridomas available from the ATCC. OKT4 hybridoma is available under ATCC CRL 8002.
When ready for use, the coating solution was removed and the wells rinsed 3× with PBS. A blocking step was performed by adding 0.3 ml PBT per well and incubating at least 30 min at 37° C. All PBT was removed and 50 ul of diluted cell extracts were added to the test wells. 50 ul of extraction buffer/PBT (1:15, v/v) were added to the assay blank wells. The plates were sealed and incubated 1 hour at 4° C. […]

Some results are limits rather than exact numbers.

T1 sequence (P06239 2-509 limits assumed, other chains not shown): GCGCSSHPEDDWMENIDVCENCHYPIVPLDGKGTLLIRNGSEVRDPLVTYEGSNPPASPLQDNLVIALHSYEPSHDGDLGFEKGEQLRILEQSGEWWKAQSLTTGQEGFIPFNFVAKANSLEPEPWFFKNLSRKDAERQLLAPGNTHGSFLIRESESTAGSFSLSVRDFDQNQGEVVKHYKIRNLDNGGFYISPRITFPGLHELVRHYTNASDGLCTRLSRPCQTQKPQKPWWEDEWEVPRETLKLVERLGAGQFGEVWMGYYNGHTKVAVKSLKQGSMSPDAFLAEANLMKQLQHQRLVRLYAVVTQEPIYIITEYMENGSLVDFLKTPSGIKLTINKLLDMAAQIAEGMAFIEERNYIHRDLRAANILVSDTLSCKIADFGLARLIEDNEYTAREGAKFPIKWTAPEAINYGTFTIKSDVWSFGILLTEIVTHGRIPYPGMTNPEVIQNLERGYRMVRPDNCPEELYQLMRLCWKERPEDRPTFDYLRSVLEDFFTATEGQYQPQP

For the compound “5,7-dihydroxy-4'-methoxyisoflavone [Genistein]”, the IC50 is more than 200 µM.

`CCCCCCCCCCCC1N=C(N)N2CCCC2=C1C(=O)OCCCCNC(=N)N` (stereo not shown) [Crambine A]: the IC50 is less than 100 µM.

Take `N#CC(C#N)=Cc1ccc(O)c(O)c1` [LC-A23, 2-cyano, 3-(3,4-dihydroxyphenyl)acrylonitrile]: the IC50 is more than 500 µM.

As for `N#C/C(=C\c1ccc(O)c(O)c1)C(N)=O` [LC-A46, trans-2-cyano, 3-(3,4-dihydroxyphenyl)acrylamide], the IC50 worked out at 300 µM.
